Measured values published in US20220259234A1, “COT MODULATORS AND METHODS OF USE THEREOF” (Gilead Sciences, Inc., priority 2019, published 2022).
≈ marks a conversion by molar mass, not a printed value. Read-outs that look alike come from different tables or passages of the source.

Legend:
[1] = Solubility in FaSSIF and FeSSIF; type: physicochemical; settings: thermodynamic from solid
Experimental: Solubility was determined at ambient temperature in buffered fasted-state simulated intestinal fluid (FaSSIF, pH 6.5) and buffered fed-state simulated intestinal fluid (FeSSIF, pH 5.0) prepared in-house using BioRelevant Simulated Intestinal Fluid (SIF) powder. Solids were added to FaSSIF or FeSSIF in 1.5-mL Eppendorf tubes, sonicated for 1 minute, then agitated for 2.5 hours in an Eppendorf ThermoMixer C. To determine concentration in solution, the suspensions were centrifuged for 10 min at 14,800 rpm and supernatants were diluted to a volume of 1 mL with 1:1 v/v acetonitrile:water. All diluted supernatants were analyzed by UPLC using a Waters Acquity UPLC with a PDA UV detector.

Human plasma stability = type: in vitro ADME; settings: substrate 2 μM, read-out: Human Plasma T½
Experimental: (§1) Plasma stability assays were performed in human and dog. Duplicate sets were performed with a tecan liquid handler or with cluster tubes in a heat block. Generally, a substrate concentration of 2 μM was used. Plasma in sodium EDTA was provided by BioIVT as whole plasma with K2 EDA as anti-coagulent.

[2] = In vivo dog pharmacokinetics; settings: beagle dogs; for AUC0-72 h of the named analyte in plasma: label = analyte measured
Dog plasma stability = type: in vitro ADME; settings: substrate 2 μM, read-out: Dog Plasma T½
Experimental: as §1

[3] = fasted-state simulated intestinal fluid (FaSSIF), fassif, fasted-state simulated intestinal fluid pH 6.5, ambient temperature, read-out: FaSSIF (pH 6.5) solubility
[4] = fed-state simulated intestinal fluid (FeSSIF), fessif, fed-state simulated intestinal fluid pH 5.0, ambient temperature, read-out: FeSSIF (pH 5.0) solubility
[5] = oral powder in capsule, dosed Compound B 9.7 mg-eq/kg

Experimental for Dog GI S9 stability: (§2) GI S9 stability assays were performed. Generally, a substrate concentration of 2 μM was used, a protein concentration of 1.0 mg/mL intestinal S9 was used, and a reaction buffer of 1× phosphate buffered saline (PBS) was used. Intestinal S9 was provided by BioIVT (dog) or Xenotech (human). […] Plates were vortexed, and then centrifuged at 3000×G for 30 minutes. 150 μL of supernatant was transferred to new plates and 150 μL water was added. New plates were vortexed to mix.
(§3) Samples were analyzed with a Leap HTC Autosampler and a Dionex UltiMate 3000 HPLC system interfaced to a Thermo Q-Exactive mass spectrometer operation in positive ion electrospray mode. A Thermo Scientific Hypersil GOLD (1.9 μM particle size, 50×2.1 mm) HPLC column was used and mobile phase was pumped at 0.5 mL/min. Elution of analytes was achieved by a series of linear gradients of acetonitrile in water containing 0.1% (v/v) formic acid. Quantification was by analyte/internal standard peak area ratio (PAR).
Experimental for Human GI S9 stability: as §2, §3

half-life at 2 μM (Human GI S9 stability; intestinal S9) | solubility at 2.5 h [1, 3] | solubility at 2.5 h [1, 4] | half-life at 2 μM (Human plasma stability) | half-life at 2 μM (Dog GI S9 stability; intestinal S9) | Compound | other results
789 min | 12 µg/mL (≈ 18.4 µM) | 52 µg/mL (≈ 79.8 µM) | 1580 min | – | COC[C@@H](C)OC(=O)N(c1cc(C#N)c2ncc(C#N)c(NCC(C)(C)C)c2c1)[C@H](c1cn(C23CC(C2)C3)nn1)c1ccc(F)nc1C [Example 9, (R)-1-methoxypropan-2-yl ((S)-(1-(bicyclo[1.1.1]pentan-1-yl)-1H-1,2,3-triazol-4-yl)(6-fluoro-2-methylpyridin-3-yl)methyl)(3,8-dicyano-4-(neopentylamino)quinolin-6-yl)carbamate] | –
– | – | – | – | – | Cn1ccc2c([C@@H](c3cn(C45CC(C4)C5)nn3)N(C(=O)OCO)c3cc(Cl)c4ncc(C#N)c(NCC(C)(C)C)c4c3)cccc2c1=O [Intermediate A] | AUC0-72 h of the named analyte in plasma [2, 5]: BLQ
– | – | – | – | – | Cc1nc(F)ccc1[C@@H](c1cn(C23CC(C2)C3)nn1)N(C(=O)OCOP(=O)(O)O)c1cc(C#N)c2ncc(C#N)c(N[C@H](C)C(C)(C)C)c2c1 [Example 10, (Phosphonooxy)methyl ((S)-(1-(bicyclo[1.1.1]pentan-1-yl)-1H-1,2,3-triazol-4-yl)(6-fluoro-2-methylpyridin-3-yl)methyl)(3,8-dicyano-4-(((R)-3,3-dimethylbutan-2-yl)amino)quinolin-6-yl)carbamate] | half-life at 2 μM (Human GI S9 stability; s9): 26 min; half-life at 2 μM (Dog GI S9 stability; s9): 20 min
789 min | – | – | – | 789 min | Cc1nc(F)ccc1[C@@H](c1cn(C23CC(C2)C3)nn1)N(C(=O)C(=O)O)c1cc(C#N)c2ncc(C#N)c(N[C@H](C)C(C)(C)C)c2c1 [Example 13, 2-(((S)-(1-(bicyclo[1.1.1]pentan-1-yl)-1H-1,2,3-triazol-4-yl)(6-fluoro-2-methylpyridin-3-yl)methyl)(3,8-dicyano-4-(((R)-3,3-dimethylbutan-2-yl)amino)quinolin-6-yl)amino)-2-oxoacetic acid] | –
165 min | 77 µg/mL (≈ 105 µM) | 450 µg/mL (≈ 612 µM) | 237 min | – | Cc1nc(F)ccc1[C@@H](c1cn(C23CC(C2)C3)nn1)N(C(=O)OCOC(=O)C1CCN(C)CC1)c1cc(C#N)c2ncc(C#N)c(NCC(C)(C)C)c2c1 [Example 8, (S)-((((1-(bicyclo[1.1.1]pentan-1-yl)-1H-1,2,3-triazol-4-yl)(6-fluoro-2-methylpyridin-3-yl)methyl)(3,8-dicyano-4-(neopentylamino)quinolin-6-yl)carbamoyl)oxy)methyl 1-methylpiperidine-4-carboxylate] | –
< 1 min | > 1880 µg/mL | > 1910 µg/mL | 14 min | 1 min | C[C@H](N)C(=O)OCOC(=O)N(c1cc(Cl)c2ncc(C#N)c(NCC(C)(C)C)c2c1)[C@H](c1cn(C23CC(C2)C3)nn1)c1cccc2c(=O)n(C)ccc12 [Example 2, ((((S)-(1-(bicyclo[1.1.1]pentan-1-yl)-1H-1,2,3-triazol-4-yl)(2-methyl-1-oxo-1,2-dihydroisoquinolin-5-yl)methyl)(8-chloro-3-cyano-4-(neopentylamino)quinolin-6-yl)carbamoyl)oxy)methyl L-alaninate] | half-life at 2 μM (Dog plasma stability): 3 min
477 min | – | – | – | 528 min | COC[C@@H](C)OC(=O)N(c1cc(C#N)c2ncc(C#N)c(N[C@H](C)C(C)(C)C)c2c1)[C@H](c1cn(C23CC(C2)C3)nn1)c1ccc(F)nc1C [Example 12, (R)-1-methoxypropan-2-yl ((S)-(1-(bicyclo[1.1.1]pentan-1-yl)-1H-1,2,3-triazol-4-yl)(6-fluoro-2-methylpyridin-3-yl)methyl)(3,8-dicyano-4-(((R)-3,3-dimethylbutan-2-yl)amino)quinolin-6-yl)carbamate] | –
– | – | – | – | – | Cc1nc(F)ccc1[C@@H](c1cn(C23CC(C2)C3)nn1)N(C(=O)OCOP(=O)(O)O)c1cc(C#N)c2ncc(C#N)c(NCC(C)(C)C)c2c1 [Example 6, (Phosphonooxy)methyl (S)-((1-(bicyclo[1.1.1]pentan-1-yl)-1H-1,2,3-triazol-4-yl)(6-fluoro-2-methylpyridin-3-yl)methyl)(3,8-dicyano-4-(neopentylamino)quinolin-6-yl)carbamate] | half-life at 2 μM (Human GI S9 stability; s9): 25 min; half-life at 2 μM (Dog GI S9 stability; s9): 14 min
– | – | – | – | – | Cn1ccc2c([C@@H](c3cn(C45CC(C4)C5)nn3)N(C(=O)OCCCOP(=O)(O)O)c3cc(Cl)c4ncc(C#N)c(NCC(C)(C)C)c4c3)cccc2c1=O [Compound C] | AUC0-72 h of the named analyte in plasma ([2]; oral 3 mg/mL solution, dosed Compound C 3 mg-eq/kg): BLQ; in vivo conversion of dosed compound ([2]; oral solution of Compound C, plasma over 72 hour): converted in vivo to both Compound D and Compound A in measurable amounts
3 min | 12 µg/mL | 42 µg/mL | – | – | CC(=O)OCOC(=O)N(c1cc(C#N)c2ncc(C#N)c(NCC(C)(C)C)c2c1)[C@H](c1cn(C23CC(C2)C3)nn1)c1ccc(F)nc1C [Example 7, (S)-((((1-(bicyclo[1.1.1]pentan-1-yl)-1H-1,2,3-triazol-4-yl)(6-fluoro-2-methylpyridin-3-yl)methyl)(3,8-dicyano-4-(neopentylamino)quinolin-6-yl)carbamoyl)oxy)methyl acetate] | –
– | – | – | – | – | Cn1ccc2c([C@@H](c3cn(C45CC(C4)C5)nn3)N(C(=O)OCOP(=O)(O)O)c3cc(Cl)c4ncc(C#N)c(NCC(C)(C)C)c4c3)cccc2c1=O [Compound B] | AUC0-72 h of the named analyte in plasma [2, 5]: BLQ

Compound | half-life at 2 μM (Human GI S9 stability; intestinal S9) | solubility at 2.5 h [1, 3] | solubility at 2.5 h [1, 4] | half-life at 2 μM (Human plasma stability) | half-life at 2 μM (Dog GI S9 stability; intestinal S9) | other results
Cn1ccc2c([C@@H](c3cn(C45CC(C4)C5)nn3)N(C(=O)OCOP(=O)(O)O)c3cc(Cl)c4ncc(C#N)c(NCC(C)(C)C)c4c3)cccc2c1=O [Example 1, (Phosphonooxy)methyl (S)-((1-(bicyclo[1.1.1]pentan-1-yl)-1H-1,2,3-triazol-4-yl)(2-methyl-1-oxo-1,2-dihydroisoquinolin-5-yl)methyl)(8-chloro-3-cyano-4-(neopentylamino)quinolin-6-yl)carbamate] | 43 min | > 1580 µg/mL | > 2170 µg/mL | 369 min | 26 min | half-life at 2 μM (Dog plasma stability): 278 min
Cn1ccc2c([C@@H](c3cn(C45CC(C4)C5)nn3)N(C(=O)OCCCOP(=O)(O)O)c3cc(Cl)c4ncc(C#N)c(NCC(C)(C)C)c4c3)cccc2c1=O [Example 4, 3-(Phosphonooxy)propyl (S)-((1-(bicyclo[1.1.1]pentan-1-yl)-1H-1,2,3-triazol-4-yl)(2-methyl-1-oxo-1,2-dihydroisoquinolin-5-yl)methyl)(8-chloro-3-cyano-4-(neopentylamino)quinolin-6-yl)carbamate] | – | 4 µg/mL (≈ 5.16 µM) | 210 µg/mL (≈ 271 µM) | – | – | half-life at 2 μM (Human GI S9 stability; s9): 21 min; half-life at 2 μM (Dog GI S9 stability; s9): 12 min
